The values that follow come from patent US11207424B2, “Methods and materials for increasing viral vector infectivity” (Mayo Foundation for Medical Education and Research, priority 2014, dated 2021).

For assay [1], the system named is HeLa cells. In words: GFP-expressing single-stranded AAV9 or scAAV9 vector transduction of HeLa cells, flow cytometry. It counts as cell-based. The following applies: AAV9 CMV-GFP or scAAV9 CMV-GFP, 20 nM at 8 hours p.i., 48 hours p.i. On the procedure:
FIG. 20 contains flow cytometry data plotting the infectivity of GFP-expressing single-stranded AAV9 or self-complementary (sc) AAV9 vectors. HeLa cells were infected by AAV9 CMV-GFP or scAAV9 CMV-GFP vectors, followed by treatment with 20 nM meayamycin B at 8 hours p.i. Flow cytometry analysis was performed to observe GFP-positive cell populations at 48 hours p.i.
To understand the mechanism of U2 snRNP-mediated block of AAV vector transduction, the optimal timing of meayamycin B treatment in relationship to AAV infection was further assessed. Pretreatment with the drug was not needed in order for it to enhance AAV9 infection (FIG. 18). […] To further map the optimal timing of U2 snRNP inhibition for AAV vector transduction, AAV2 and AAV9 vector-infected HeLa cells were treated with 5 nM meayamycin B at various time points and duration, and luciferase activity was assessed at 3 days p.i. […] In contrast, the effects of meayamycin B on AAV vector transduction were impaired when drug was added either 24 or 48 hours p.i. (FIG. 19). Thus, optimal enhancement of AAV vector transduction involved initiation of U2 snRNP inhibition prior to 24 hours post AAV vector infection.

For assay [2], the system named is primary porcine hepatocytes. Put plainly: AAV2 or AAV9 CMV-Luc transduction of primary porcine hepatocytes, luciferase. It is filed as cell-based. The following applies: porcine hepatocytes, 0, 2 or 20 nM after 8 hours infection, 48 hours p.i. Here is the method: FIG. 24 contains graphs plotting the relative luciferase activity in porcine hepatocytes exposed to AAV2 or AAV9 CMV-Luc vectors. Cells were infected with AAV vectors for 8 hours, virus was then removed, and cells were treated with 0, 2, or 20 nM meayamycin B. Cells were harvested 48 hours p.i. for the luciferase assay.
(§1) The ability of meayamycin B to boost AAV transduction in various cell types, relevant to gene therapy applications, was also tested. First, primary pancreatic islets were isolated from 8 week-old C57B1/6 mice, which were then transduced with AAV8 CMV-GFP and treated with 2 nM meayamycin B 3 hours p.i. Cells were monitored by BioStation Live Imaging for three days. […] (FIG. 21). The effects of meayamycin B on primary human pancreatic islets were then tested. Cells were infected with AAV2 or AAV9 CMV-Luc vectors and treated with 0, 2, 5, or 20 nM meayamycin B at 7 hours p.i. When luciferase expression was monitored at 48 hours p.i., a dose-dependent increase in luciferase expression in AAV2 and AAV9 infected cells (up to 44- and 24-fold increases in AAV9 and AAV2 transduction) was observed (FIG. 22). The effects on neonatal rat cardiomyocytes were tested next. Primary cardiomyocytes were infected with AAV2 CMV-Luc, followed by 0, 2, or 10 nM meayamycin B treatments at 3 hours post infection for 3 days. […] (FIG. 23).

In assay [3] the test system is neonatal rat cardiomyocytes. In words: AAV2 CMV-Luc or scAAV9 CMV-GFP transduction of neonatal rat cardiomyocytes. It counts as cell-based. On the procedure: FIG. 23 presents a graph plotting the relative luciferase activity and images of GFP-expressing cells in neonatal rat cardiomyocytes. Primary cardiomyocytes were infected with AAV2 CMV-Luc or scAAV9 CMV-GFP vectors and treated with meayamycin B, 3 hours p.i. Luciferase activity was measured 3 days p.i., while GFP expression was monitored at 5 days p.i.
as §1

The test system of assay [4] is primary pancreatic islets. Put plainly: AAV8 CMV-GFP transduction of primary mouse pancreatic islets, live imaging. It is filed as cell-based, C57B1/6 mice. The following applies: 2 nM at 3 hours p.i., 48 and 72 hours p.i. On the procedure: FIG. 21 contains photographs of murine islet cells exposed to AAV8-GFP vectors along with meayamycin (2 nM). Images of GFP expressing islets were taken at two and three days post infection.
as §1

Assay [5] has as its system HeLa cells. It is filed as cell-based. The following applies: for increase in relative luciferase activity: 48 hours p.i.
Assay [6] has as its system primary human pancreatic islets. Put plainly: AAV2 or AAV9 CMV-Luc transduction of primary human pancreatic islets, luciferase. It counts as cell-based. The following applies: human islets, 0, 2, 5 or 20 nM at 7 hours p.i., 48 hours p.i. On the procedure:
FIG. 22 contains graphs plotting relative light units in human islet cells 48 hours post infection with an AAV2 or AAV9 vector and following treatment with the indicate amount of meayamycin at 7 hours post infection. Luciferase expression was analyzed 48 hours p.i.
as §1

The test system of assay [7] is cancer cell lines and clinically relevant cell types, including pancreatic islets and hepatocytes. In words: Summary statement: AAV vector transduction of cancer cell lines and clinically relevant cell types. It is filed as cell-based. The following applies: summary over cell types. An excerpt: Thus, genetic and/or pharmacological inhibition of U2 snRNP can be used to increase AAV vector transduction, which allows for efficient AAV vector gene therapy with reduced vector doses.

Where [8] appears, read: HeLa, 5 nM, drug 3 hours p.i., washed 1, 2 or 3 days after, luciferase at 3 days p.i.

Where two headings read alike, the source gives them in different places.

`CC(/C=C/[C@H]1OC(C)(C)C[C@@]2(CO2)[C@@H]1O)=C\C[C@@H]1O[C@H](C)[C@H](NC(=O)/C=C\[C@H](C)OC(=O)N2CCOCC2)C[C@@H]1C` [meayamycin B]: in the assay with HeLa cells [1], the “transduction by GFP-expressing vectors (number and fluorescent intensity of GFP-positive cells)” value was “enhanced the transduction by both single-stranded and self-complementary AAV vectors”. In assay [2], the “increase in AAV2 vector transduction (luciferase)” value is given as not above 18 fold and the “increase in AAV9 vector transduction (luciferase)” value is reported as “up to 57 fold”. Further, in assay [3] (AAV2 CMV-Luc, 2 nM at 3 hours post infection for 3 days), the “vector transduction (luciferase)” value is listed as “did not strongly improve vector transduction”. Moreover, in assay [3] (AAV2 CMV-Luc, 10 nM at 3 hours post infection for 3 days), the “increase in luciferase expression” value is 72 fold. Besides, the GFP expression entry in assay [3] (scAAV9 CMV-GFP, 10 nM, 5 days p.i.) is “notable increase in GFP expression”. In addition, the “GFP expressing cells in islets vs control islets” value in assay [4] is recorded as “increased numbers of GFP expressing cells”. Further, the “increase in relative luciferase activity” value in the assay on HeLa cells [5] (HeLa cells pre-treated at increasing dose 3 hours before AAV9 vector infection) is listed as “up to 49 fold”. Further, in the assay with HeLa cells [5] (setting [8]), the “increase in AAV2 vector transduction (luciferase)” value is listed as “up to 380 fold” and the “increase in AAV9 vector transduction (luciferase)” value is recorded as not above 359 fold. In the assay with HeLa cells [5] (HeLa, 20 nM, treated 9 hours post AAV9 vector infection), the “increase in relative luciferase activity” value stood at 464 fold. Moreover, the “effects on AAV vector transduction, late drug addition” value in the assay with HeLa cells [5] (HeLa, AAV2 and AAV9, drug added either 24 or 48 hours p.i.) was “impaired”. For the same molecule, in the assay on HeLa cells [5] (HeLa, AAV2 and AAV9, washout for 48 hours after 3-24 hours of treatment), the “effect of washout on AAV vector transduction enhancement” value is given as “did not strongly compromise its effects on AAV vector transduction”. Further, the “effect on relative luciferase activity” value in the assay on HeLa cells [5] (HeLa, AAV9, 20 nM, treatment at 33 hours p.i.) is reported as “relatively weak effects”. In assay [6], the “increase in AAV2 transduction (luciferase expression)” value was not above 24 fold and the “increase in AAV9 transduction (luciferase expression)” value is “up to 44 fold”. For the same molecule, the “increase in vector transduction” value in assay [7] is “up to 1000 fold”.
